# Assay results published in patent US20070249540A1, “Methods for Inhibiting Proteasome and Heat Shock Protein 90” (priority 2004, published 2007).
# Experiments:
# [1] = tested on: MCF-7 breast cancer cells; conditions: 0.01 μM taxol, stated as known; cited from earlier work
# [2] = tested on: MCF-7 breast cancer cells; assay: Sensitization of MCF-7 breast cancer cells to the cytotoxic effects of Taxol; assay type: cell-based, human; conditions: MCF-7, 0.01 μM Taxol alone
# Method: Tumor cells are allowed to proliferate in the presence of an inhibitory agent for 48 to 96 hrs. At the end of the assay, tumor cell proliferation in the presence of the inhibitory agent is determined either by cell counting or BrdU incorporation and expressed as % of Control Proliferation, where the term “Control Proliferation” refers to tumor cell proliferation in the absence of any inhibitory or other agents.
# MCF-7 breast cancer cells were plated onto a 24-well plate at a density of 208,000 cells per well and allowed to adhere overnight. Subsequently, the cells were treated with 0.01 μM taxol, a concentration known to inhibit 50% of MCF-7 cell proliferation. 6 hrs after the addition of taxol, half of the wells received 0.001 μM SEQ ID NO: 2. […] Cell proliferation of control (untreated) MCF-7 cells and MCF-7 cells treated either with Taxol or SEQ ID NO: 2 alone or with the combination of Taxol and SEQ ID NO: 2 was determined.
structure (smiles),measurement,setting,value
CC(=O)O[C@H]1C(=O)[C@@]2(C)[C@H]([C@H](OC(=O)c3ccccc3)[C@]3(O)C[C@H](OC(=O)[C@H](O)[C@@H](NC(=O)c4ccccc4)c4ccccc4)C(C)=C1C3(C)C)[C@]1(OC(C)=O)CO[C@@H]1C[C@@H]2O [Taxol],inhibition of MCF-7 cell proliferation,[1],50%
same,% Control Proliferation,[2],52%
